According to patent US6806230B1, “Pyrimidine derivatives and herbicides containing them” (Kumiai Chemical Industry Co., Ltd., priority 1999, dated 2004):

What was measured:
Assay type in all cases: in vivo
barnyard grass (Eo) = assay: Test Example 1: herbicidal effects by flooded paddy field treatment; set-up: herbicidal effects, Eo (barnyard grass):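 0-5 growth inhibition grade; 5 = over 90%; 4 = 70-90%; 3 = 50-70%; 2 = 30-50%; 1 = 10-30%; 0 = under 10%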; settings: for herbicidal effects, Eo (barnyard grass): dose 100 g active ingredient per 10 ares, examined on the 21st day after treatment, standards of Table 44; for Herbicidal effect index, Eo: dose 100 gai/10a, examined on 21st day after treatment, index 0-5 per Table 44;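 on Herbicidal effect index, Eo: 0-5 growth inhibition grade; 5 = over 90%; 4 = 70-90%; 3 = 50-70%; 2 = 30-50%; 1 = 10-30%; 0 = under 10%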
Description: (§1) In a 100 cm^2 plastic pot, paddy field soil was filled and paddled. Then, seeds of barnyard grass (Eo) and monochoria (Mo) were sown, and water was introduced to a depth of 3 cm. Next day, a wettable powder prepared in accordance with Formulation Example 1 was diluted with water and dropwise applied to the water surface. The dose was 100 g of the active ingredient per 10 ares. Thereafter, cultivation was carried out in a green house, and on the 21st day after the treatment, the herbicidal effects were examined in accordance with the standards as identified in Table 44.

monochoria (Mo) = assay: as above; set-up: herbicidal effects, Mo (monochoria):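 0-5 growth inhibition grade; 5 = over 90%; 4 = 70-90%; 3 = 50-70%; 2 = 30-50%; 1 = 10-30%; 0 = under 10%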; settings: for herbicidal effects, Mo (monochoria): dose 100 g active ingredient per 10 ares, examined on the 21st day after treatment, standards of Table 44; for Herbicidal effect index, Mo: dose 100 gai/10a, examined on 21st day after treatment, index 0-5 per Table 44;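 on Herbicidal effect index, Mo: 0-5 growth inhibition grade; 5 = over 90%; 4 = 70-90%; 3 = 50-70%; 2 = 30-50%; 1 = 10-30%; 0 = under 10%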
Description: as §1

barnyard grass (Ec) = assay: Test Example 2: herbicidal effects by upland soil treatment; set-up: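 0-5 growth inhibition grade; 5 = over 90%; 4 = 70-90%; 3 = 50-70%; 2 = 30-50%; 1 = 10-30%; 0 = under 10%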; settings: dose 100 g active ingredient per 10 ares, examined on the 21st day after treatment
Description: In a 80 cm^2 plastic pot, upland soil was filled, and seeds of barnyard grass (Ec) and green foxtail (Se) were sown and covered with soil. A wettable powder prepared in accordance with Formulation Example 1 was diluted with water and uniformly applied to the soil surface by means of a small size spray at a rate of 100 l per 10 ares, so that the dose of the active ingredient would be 100 g per 10 ares. Thereafter, cultivation was carried out in a green house, and on the 21st day after the treatment, the herbicidal effects were examined in accordance with the standards as identified in Table 44.

SMILES | herbicidal effects, Eo (barnyard grass) (barnyard grass (Eo)) | herbicidal effects, Mo (monochoria) (monochoria (Mo)) | Ec (herbicidal effects, index) (barnyard grass (Ec)) | Herbicidal effect index, Eo (barnyard grass (Eo)) | Herbicidal effect index, Mo (monochoria (Mo))
C#CCN(C(=O)Cc1ccc(C)cc1)C(c1cncnc1CC)C(C)C (racemic) [1-561] | 5 | 5 | 5 |  | 
CC(C)C(c1cncnc1C(F)(F)F)N(C)C(=O)Cn1cc(Br)cn1 (racemic) [2-41] | 5 | 5 |  |  | 
CSCC(c1cncnc1C(F)(F)F)N(C)C(=O)Cc1ccc(F)cc1 (racemic) [1-413] | 5 | 5 |  |  | 
CC(C)C(c1cncnc1C(F)(F)F)N(C)C(=O)N(C)c1ccsc1 (racemic) [2-63] | 5 | 5 | 5 |  | 
CC(C)C(c1cncnc1C(F)(F)Cl)N(C)C(=O)Oc1ccc(F)cc1 (racemic) [1-184] | 5 | 5 |  |  | 
Cc1ccc(CC(=O)N(C)C(c2cncnc2C(F)(F)F)C2(C)CC2)s1 (racemic) [2-59] | 5 | 5 | 5 |  | 
CC(C)C(c1cncnc1C(F)(F)F)N(C)C(=O)C(=O)c1ccccc1 (racemic) [1-328] | 5 | 5 | 5 |  | 
CSCC(c1cncnc1C(F)(F)F)N(C)C(=O)Cc1ccc(C)cc1 (racemic) [1-421] | 5 | 5 |  |  | 
COc1ccc(OC(=O)N(C)C(c2cncnc2C(F)(F)Cl)C(C)C)cc1 (racemic) [1-637] | 5 | 5 |  |  | 
CCc1ncncc1C(CC)N(C)C(=O)Oc1ccc(Cl)cc1 (racemic) [1-646] |  |  | 4 |  | 
CC(C)C(c1cncnc1-c1ccccc1)N(C)C(=O)Cc1ccc(F)cc1 (racemic) [1-323] | 5 | 5 | 4 |  | 
CON(C(=O)Cc1ccccc1)C(c1cncnc1C(F)(F)F)C(C)C (racemic) [1-332] |  |  | 5 |  | 
CC(C)C(c1cncnc1C(F)(F)F)N(C)C(=O)COc1cncc(Cl)c1 (racemic) [2-44] | 5 | 5 | 5 |  | 
CC(C)c1ncncc1C(C(C)C)N(C)C(=O)Cc1ccc(Cl)cc1F (racemic) [Compound 1-254] | 5 | 5 | 5 |  | 
CSCC(c1cncnc1C(F)(F)F)N(C)C(=O)Cc1ccc(Br)cc1 (racemic) [1-415] | 5 | 5 |  |  | 
CN(C(=O)Cc1ccsc1)C(c1cncnc1C(F)(F)F)C(C)(C)C (racemic) [2-14] | 5 | 5 | 5 |  | 
CC(C)C(c1cncnc1-c1ccccc1)N(C)C(=O)Cc1ccccc1 (racemic) [1-322] | 5 | 5 |  |  | 
C=CCN(C(=O)Cc1ccccc1)C(c1cncnc1C(F)(F)F)C(C)C (racemic) [1-518] | 5 | 5 | 5 |  | 
Cc1ccc(CC(=O)N(C)C(C)c2cncnc2C(C)(C)C)cc1 (racemic) [1-191] | 5 | 5 |  |  | 
C#CCN(C(=O)Cc1ccc(F)cc1)C(c1cncnc1C(F)(F)F)C(C)(C)C (racemic) [1-620] |  |  | 5 |  | 
C#CCN(C(=O)C(C)c1ccccc1)C(c1cncnc1CC)C(C)C (mixture of isomers) [1-562] | 5 | 5 | 5 |  | 
C#CCN(C(=O)Cc1ccc(Cl)cc1)C(c1cncnc1C(C)C)C(C)C (racemic) [1-623] |  |  | 5 |  | 
C#CCN(C(=O)Cc1ccccc1)C(c1cncnc1CCC)C(C)C (racemic) [1-616] |  |  | 5 |  | 
COC(C)(OC)C(c1cncnc1C(C)C)N(C)C(=O)Cc1ccc(F)cc1 (racemic) [1-510] | 5 | 5 |  |  | 

SMILES | herbicidal effects, Eo (barnyard grass) (barnyard grass (Eo)) | herbicidal effects, Mo (monochoria) (monochoria (Mo)) | Ec (herbicidal effects, index) (barnyard grass (Ec)) | Herbicidal effect index, Eo (barnyard grass (Eo)) | Herbicidal effect index, Mo (monochoria (Mo))
CC(C)C(c1cncnc1C=O)N(C)C(=O)Cc1ccc(F)cc1 (centres unmarked) [Compound 1-523, N-[1-(4-formylpyrimidin-5-yl)-2-methylpropyl]-N-methyl-4-fluorophenylacetamide] |  |  | 4 |  | 
Cc1ccc(OC(=O)N(C)C(c2cncnc2C(F)(F)Cl)C(C)C)cc1 (racemic) [1-636] |  |  | 4 |  | 
CC(C)C(c1cncnc1C(F)(F)Cl)N(C)C(=O)Oc1ccc(Cl)cc1 (racemic) [1-185] | 5 | 5 |  |  | 
COC(OC)c1ncncc1C(C(C)C)N(C)C(=O)C(C)c1ccc(Cl)cc1 (mixture of isomers) [1-625] |  |  | 4 |  | 
CC(C)C(c1cncnc1C(F)(F)F)N(C)C(=O)Cc1ccncc1 (racemic) [2-5] | 5 | 5 |  |  | 
CC(C)c1ncncc1C(C(C)C)N(C)C(=O)Nc1ccccc1 (racemic) [1-326] |  |  | 4 |  | 
CSCC(c1cncnc1C(F)(F)F)N(C)C(=O)Cc1ccc(Cl)cc1F (racemic) [1-422] | 5 | 5 |  |  | 
CC(C)C(c1cncnc1C=NO)N(C)C(=O)Cc1ccc(F)cc1 (racemic) [1-501] | 5 | 5 |  |  | 
CON=Cc1ncncc1C(C(C)C)N(C)C(=O)OCc1ccccc1 (racemic) [1-471] |  |  | 5 |  | 
CC(C)C(c1cncnc1C(F)(F)Cl)N(C)C(=O)Oc1cccc2ccccc12 (racemic) [2-80] | 5 | 4 |  |  | 
CSC(C(=O)N(C)C(c1cncnc1C(F)(F)F)C(C)C)c1ccc(Cl)cc1 (mixture of isomers) [Compound 1-154] | 5 | 5 |  |  | 
CN(C(=O)Cc1ccc(Cl)cc1)C(c1cncnc1C(F)(F)Cl)C1CC1 (racemic) [Compound 1-94] |  |  |  | 5 | 5
CON=CC(c1cncnc1C(C)C)N(C)C(=O)OCc1ccccc1 (racemic) [1-466] |  |  | 4 |  | 
CCOC(OCC)c1ncncc1C(C(C)C)N(C)C(=O)Cc1ccc(Cl)cc1 (racemic) [1-469] | 5 | 5 |  |  | 
C#CCN(C(=O)Cc1ccc(Cl)cc1)C(c1cncnc1CCC)C(C)C (racemic) [1-618] |  |  | 5 |  | 
CC(C)C(c1cncnc1C(F)(F)F)N(C)C(=O)Oc1ccc(Cl)cc1 (racemic) [1-178] | 5 | 4 |  |  | 
CCOC(=O)c1ncncc1C(C(C)C)N(C)C(=O)C(C)c1ccc(Cl)cc1 (single isomer, unassigned) [1-595] | 5 | 5 |  |  | 
CC(C)C(c1cncnc1C(F)(F)Cl)N(C)C(=O)Oc1ccccc1 (racemic) [Compound 1-19] |  |  |  | 5 | 5
CC(C)c1ncncc1C(C=NO)N(C)C(=O)OCc1ccccc1 (racemic) [1-531] |  |  | 4 |  | 
CSCC(c1cncnc1C(F)(F)F)N(C)C(=O)Cc1cccc(F)c1 (racemic) [1-420] | 5 | 5 |  |  | 
C#CCN(C(=O)Cc1ccccc1)C(c1cncnc1C(C)C)C(C)C (racemic) [1-621] |  |  | 5 |  | 
CN(C(=O)Cc1ccccc1F)C(c1cncnc1C(F)(F)F)C1CCCC1 (racemic) [Compound 1-156] | 5 | 5 |  |  | 
CC(C)C(c1cncnc1C(F)(F)F)N(C)C(=O)COc1nnc(C(F)(F)F)s1 (racemic) [2-47] |  |  | 4 |  | 
